Results: US12102648B2, “Orally-bioavailable nucleoside analogs” (priority 2021, dated 2024)
Like-named read-outs stand apart in the source and are kept apart here.

Test: in vitro
Assay type: in vitro ADME
Conditions: human
Procedure: The bidirectional permeability of compounds across the Caco-2 cell monolayer was assessed. The Caco-2 model is a widely used in vitro model for small intestinal absorption and potential for efflux.
Cell culture. Caco-2 cells were grown in DMEM supplemented with 10% fetal bovine serum (FBS), 1% Penicillin-Streptomycin and 1% MEM NEAA. The cells were incubated at 37° C., 5% CO2/95% air and saturated humidity. After reaching 80-90% confluency, the cells were gently detached with trypsin. Cells at passage 39 were seeded on the 24-well BD insert system at the density of 8×10^4 cells/cm^2 and cultured for 19 days with medium changed every 2-3 days. Measure the transepithelial electrical resistance (TEER) value of each well. The wells can be used only when their TEER values are greater than 600 Ohms/cm^2.
Transport assay. After removing the cell culture medium from the 24-well insert plate, the cells were rinsed with warm transport buffer. Appropriate dosing and receiving solutions were applied to the donor and receiver chambers to initiate the transport assay in apical to basolateral (A to B) or basolateral to apical (B to A) directions ([…] for apical and basolateral wells, respectively). Duplicate wells in each direction were used for the test compound and control compound. The plate was incubated in CO2 incubator at 37° C., with 5% CO2/95% air and saturated humidity without shaking. The sample after 10-minute incubation was used as the T0 sample, and the sample after 90-minute incubation was used as the T90 sample. To and T90 samples were collected from the donor and receiver side of each well at the designed timepoint, mixed with the transport buffer and acetonitrile/MeOH (1:1, v/v) and the internal standard for LC/MS/MS analysis. All samples were vortexed and centrifuged at 4000 rpm at 4° C. for 15 minutes, diluted with pure water and stored at 4° C. before bioanalysis by LC/MS/MS.
Sample analysis. The concentrations of test compounds and control compounds in Caco-2 cells were quantitatively determined by LC/MS/MS method after protein precipitation.
Calculations. The apparent permeability (Papp, cm/s), efflux ratio (ER) and recovery parameters were calculated for Caco-2 drug transport assay using the following equations:
[formula] [formula] where VR is the solution volume in the receiver chamber (0.4 mL on the apical side, 1.2 mL on the basolateral side); Area is the surface area for the insert membrane, i.e., 0.3 cm^2 for the area of the monolayer; Time is incubation time, expressed in seconds, i.e., 5400 s (90 min) for the current experiment; Co is the initial concentration of test compound or peak area ratio of control compounds in the donor chamber (μM); VD is the volume in the donor chambers (0.4 mL on the apical side, 1.2 mL on the basolateral side); CD and CR are the final concentrations of test compounds or peak area ratio of control compounds in donor and receiver chambers, respectively.
Compounds with Papp<1.0 are classified as low permeability, Papp between 1-10 are classified as medium permeability, and Papp≥10 are classified as high permeability. An efflux ratio (ER)>2 indicates the compounds are potential substrates for intestinal cell efflux transporters.

[1] = Caco-2 monolayer, apical to basolateral, 90-minute incubation, read-out: Papp, A-B
[2] = Caco-2 monolayer, basolateral to apical, 90-minute incubation, read-out: Papp, B-A
[3] = Caco-2 monolayer, ER>2 indicates potential efflux transporter substrate, read-out: ER (efflux ratio)

SMILES: CCCCC(=O)Nc1ncnn2c([C@]3(C#N)O[C@H](COC(=O)CC)[C@@H](O)[C@H]3O)ccc12 [Compound 282, ((2R,3S,4R,5R)-5-cyano-3,4-dihydroxy-5-(4-pentanamidopyrrolo[2,1-f][1,2,4]triazin-7-yl)tetrahydrofuran-2-yl)methyl propionate]
- Papp A→B at 90 min [1]: 0.72 ×10⁻⁶ cm/s
- Papp B→A at 90 min [2]: 4.1 ×10⁻⁶ cm/s
- efflux ratio at 90 min [3]: 5.6

SMILES: CNc1nc(N)nc2c1ncn2[C@@H]1O[C@H](COC(=O)C(C)C)[C@@H](O)[C@@]1(C)F [Compound 3, ((2R,3R,4R,5R)-5-(2-amino-6-(methylamino)-9H-purin-9-yl)-4-fluoro-3-hydroxy-4-methyltetrahydrofuran-2-yl)methyl isobutyrate]
- Papp A→B at 90 min (Caco-2): 1.8 ×10⁻⁶ cm/s
- Papp B→A at 90 min (Caco-2): 3.5 ×10⁻⁶ cm/s
- efflux ratio at 90 min (Caco-2): 2

SMILES: CC(=O)OC[C@H]1O[C@@](C#N)(c2ccc3c(N)ncnn23)[C@H](O)[C@@H]1OC(=O)C(C)C [Compound 54, (2R,3S,4R,5R)-2-(acetoxymethyl)-5-(4-aminopyrrolo[2,1-f][1,2,4]triazin-7-yl)-5-cyano-4-hydroxytetrahydrofuran-3-yl isobutyrate]
- Papp A→B at 90 min (Caco-2): 2.6 ×10⁻⁶ cm/s
- Papp B→A at 90 min (Caco-2): 2.4 ×10⁻⁶ cm/s
- efflux ratio at 90 min (Caco-2): 0.94

SMILES: CC(C)[C@H](N)C(=O)OC[C@H]1O[C@@](C#N)(c2ccc3c(N)ncnn23)[C@H](O)[C@@H]1OC(=O)CC1CCCCC1 [Compound 34, ((2R,3S,4R,5R)-5-(4-aminopyrrolo[2,1-f][1,2,4]triazin-7-yl)-5-cyano-3-(2-cyclohexylacetoxy)-4-hydroxytetrahydrofuran-2-yl)methyl L-valinate]
- Papp A→B at 90 min (Caco-2): 1.6 ×10⁻⁶ cm/s
- Papp B→A at 90 min (Caco-2): 4.8 ×10⁻⁶ cm/s
- efflux ratio at 90 min (Caco-2): 3

SMILES: CCCCCOC(=O)Nc1ncnn2c([C@]3(C#N)O[C@H](COC(=O)[C@@H](N)C(C)C)[C@@H](O)[C@H]3O)ccc12 [Compound 86, ((2R,3S,4R,5R)-5-cyano-3,4-dihydroxy-5-(4-(((pentyloxy)carbonyl)amino)pyrrolo[2,1-f][1,2,4]triazin-7-yl)tetrahydrofuran-2-yl)methyl L-valinate]
- Papp A→B at 90 min (Caco-2): 0.33 ×10⁻⁶ cm/s
- Papp B→A at 90 min (Caco-2): 11 ×10⁻⁶ cm/s
- efflux ratio at 90 min (Caco-2): 35

SMILES: CC(C)[C@H](N)C(=O)O[C@H]1[C@@H](OC(=O)[C@@H](N)C(C)C)[C@](C#N)(c2ccc3c(N)ncnn23)O[C@@H]1COC(=O)CC1CCCCC1 [Compound 356, (2R,3R,4R,5R)-2-(4-aminopyrrolo[2,1-f][1,2,4]triazin-7-yl)-2-cyano-5-((2-cyclohexylacetoxy)methyl)tetrahydrofuran-3,4-diyl (2S,2'S)-bis(2-amino-3-methylbutanoate)]
- Papp A→B at 90 min (Caco-2): 0.6 ×10⁻⁶ cm/s
- Papp B→A at 90 min (Caco-2): 3.6 ×10⁻⁶ cm/s
- efflux ratio at 90 min (Caco-2): 6

SMILES: N#C[C@@]1(c2ccc3c(N)ncnn23)O[C@H](COC(=O)CC2CCOCC2)[C@@H](O)[C@H]1O [Compound 257, ((2R,3S,4R,5R)-5-(4-aminopyrrolo[2,1-f][1,2,4]triazin-7-yl)-5-cyano-3,4-dihydroxytetrahydrofuran-2-yl)methyl 2-(tetrahydro-2H-pyran-4-yl)acetate]
- Papp A→B at 90 min (Caco-2): 0.03 ×10⁻⁶ cm/s
- Papp B→A at 90 min (Caco-2): 1.4 ×10⁻⁶ cm/s
- efflux ratio at 90 min (Caco-2): 46

SMILES: CC(=O)OC[C@H]1O[C@@](C#N)(c2ccc3c(NC(=O)c4ccccc4)ncnn23)[C@H](O)[C@@H]1O [Compound 103, ((2R,3S,4R,5R)-5-(4-benzamidopyrrolo[2,1-f][1,2,4]triazin-7-yl)-5-cyano-3,4-dihydroxytetrahydrofuran-2-yl)methyl acetate]
- Papp A→B at 90 min (Caco-2): 1.5 ×10⁻⁶ cm/s
- Papp B→A at 90 min (Caco-2): 12 ×10⁻⁶ cm/s
- efflux ratio at 90 min (Caco-2): 8

SMILES: CC(C)[C@H](N)C(=O)OC[C@H]1O[C@@](C#N)(c2ccc3c(N)ncnn23)[C@H](O)[C@@H]1OC(=O)Cc1ccccc1 [Compound 36, ((2R,3S,4R,5R)-5-(4-aminopyrrolo[2,1-f][1,2,4]triazin-7-yl)-5-cyano-4-hydroxy-3-(2-phenylacetoxy)tetrahydrofuran-2-yl)methyl L-valinate]
- Papp A→B at 90 min [1]: 1.1 ×10⁻⁶ cm/s
- Papp B→A at 90 min [2]: 10.3 ×10⁻⁶ cm/s
- efflux ratio at 90 min [3]: 9.8
